US8455399B2, “N-(4-perfluoroalkyl-phenyl)-4-triazolyl-benzamides as insecticides” (Syngenta Crop Protection LLC, priority 2009, dated 2013)

Assays:
Type in all cases: in vivo
Plutella xylostella = Plutella xylostella (diamond back moth) artificial diet test; settings: 144 h, 200 ppm (concentration in well 18 ppm), L2 larvae, larval mortality and growth regulation after 6 days
Description: Plutella Xylostella (Diamond Back Moth): 24-well microtiter plate (MTP) with artificial diet was treated with test solutions at an application rate of 200 ppm (concentration in well 18 ppm) by pipetting. After drying, the MTP's were infested with L2 larvae (7-12 per well). After an incubation period of 6 days, samples were checked for larval mortality and growth regulation.

Heliothis virescens = Heliothis virescens (tobacco budworm) egg/artificial diet test; settings: 96 h, 200 ppm (concentration in well 18 ppm), eggs 0-24 h old on artificial diet, egg mortality, larval mortality, growth regulation after 4 days
Description: Heliothis Virescens (Tobacco Budworm): Eggs (0-24 h old) were placed in 24-well microtiter plate on artificial diet and treated with test solutions at an application rate of 200 ppm (concentration in well 18 ppm) by pipetting. After an incubation period of 4 days, samples were checked for egg mortality, larval mortality, and growth regulation.

Diabrotica balteata = Diabrotica balteata (corn root worm) artificial diet test; settings: 120 h, 200 ppm (concentration in well 18 ppm), L2 larvae, larval mortality and growth regulation after 5 days
Description: Diabrotica Balteata (Corn Root Worm): A 24-well microtiter plate (MTP) with artificial diet was treated with test solutions at an application rate of 200 ppm (concentration in well 18 ppm) by pipetting. After drying, the MTP's were infested with L2 larvae (6-10 per well). After an incubation period of 5 days, samples were checked for larval mortality and growth regulation.

Spodoptera littoralis = Spodoptera littoralis (Egyptian cotton leafworm) leaf disc spray test; settings: foliar, 72 h, 200 ppm sprayed on cotton leaf discs, 5 L1 larvae, mortality, feeding behavior, growth regulation 3 days after treatment
Text: Spodoptera Littoralis (Egyptian Cotton Leafworm): Cotton leaf discs were placed on agar in a 24-well microtiter plate and sprayed with test solutions at an application rate of 200 ppm. After drying, the leaf discs were infested with 5 L1 larvae. The samples were checked for mortality, feeding behavior, and growth regulation 3 days after treatment (DAT).

Tetranychus urticae = Tetranychus urticae (two-spotted spider mite) leaf disc spray test; settings: foliar, 192 h, 200 ppm sprayed on bean leaf discs, mite populations of mixed ages, egg, larval and adult mortality 8 days later
Text: Tetranychus Urticae (Two-Spotted Spider Mite): Bean leaf discs on agar in 24-well microtiter plates were sprayed with test solutions at an application rate of 200 ppm. After drying, the leaf discs are infested with mite populations of mixed ages. 8 days later, discs are checked for egg mortality, larval mortality, and adult mortality.

Thrips tabaci = Thrips tabaci (onion thrips) leaf disc spray test; settings: foliar, 168 h, 200 ppm sprayed on sunflower leaf discs, population of mixed ages, mortality after 7 days
Description: Thrips Tabaci (Onion Thrips): Sunflower leaf discs were placed on agar in a 24-well microtiter plate and sprayed with test solutions at an application rate of 200 ppm. After drying, the leaf discs were infested with an […] population of mixed ages. After an incubation period of 7 days, samples were checked for mortality.

Measured: pest or weed control at 200 ppm

Cc1cc(C(F)(C(F)(F)F)C(F)(F)F)cc(C)c1NC(=O)c1ccc(-n2cncn2)c([N+](=O)[O-])c1 [A1, N-[2,6-Dimethyl-4-(1,2,2,2-tetrafluoro-1-trifluoromethylethyl)phenyl]-3-nitro-4-(1,2,4-triazol-1-yl)benzamide]
not listed: Thrips tabaci
≥ 80%: all other assays above

CCc1cc(C(F)(C(F)(F)F)C(F)(F)F)cc(CC)c1NC(=O)c1ccc(-n2cncn2)c([N+](=O)[O-])c1 [A2, N-[2,6-Diethyl-4-(1,2,2,2-tetrafluoro-1-trifluoromethylethyl)phenyl]-3-nitro-4-(1,2,4-triazol-1-yl)benzamide]
≥ 80%: Diabrotica balteata | Spodoptera littoralis

CCc1cc(C(F)(C(F)(F)F)C(F)(F)C(F)(F)F)cc(C)c1NC(=O)c1ccc(-n2cncn2)c([N+](=O)[O-])c1 (stereo not shown) [A3, N-[2-Ethyl-4-(1,2,2,3,3,3-hexafluoro-1-trifluoromethylpropyl)-6-methylphenyl]-3-nitro-4-(1,2,4-triazol-1-yl)benzamide]
≥ 80%: all assays above

O=C(Nc1c(Br)cc(C(F)(C(F)(F)F)C(F)(F)C(F)(F)F)cc1Br)c1ccc(-n2cncn2)c([N+](=O)[O-])c1 (stereo not shown) [A4, N-[2,6-dibromo-4-(1,2,2,3,3,3-hexafluoro-1-trifluoromethylpropyl)phenyl]-3-nitro-4-(1,2,4-triazol-1-yl)benzamide]
≥ 80%: all assays above

Cc1cc(C(F)(C(F)(F)F)C(F)(F)F)cc(C)c1NC(=O)c1ccc(-n2cncn2)c(N)c1 [B1, 3-Amino-N-[2,6-dimethyl-4-(1,2,2,2-tetrafluoro-1-trifluoromethylethyl)phenyl]-4-(1,2,4-triazol-1-yl)benzamide]
≥ 80%: Heliothis virescens | Tetranychus urticae

CCc1cc(C(F)(C(F)(F)F)C(F)(F)F)cc(CC)c1NC(=O)c1ccc(-n2cncn2)c(N)c1 [B2, 3-amino-N-[2,6-diethyl-4-(1,2,2,2-tetrafluoro-1-trifluoromethylethyl)phenyl]-4-(1,2,4-triazol-1-yl)benzamide]
not listed: Thrips tabaci
≥ 80%: all other assays above

CCc1cc(C(F)(C(F)(F)F)C(F)(F)C(F)(F)F)cc(C)c1NC(=O)c1ccc(-n2cncn2)c(N)c1 (stereo not shown) [B3, 3-Amino-N-[2-ethyl-4-(1,2,2,3,3,3-hexafluoro-1-trifluoromethylpropyl)-6-methyl-phenyl]-4-(1,2,4-triazol-1-yl)benzamide]
not listed: Thrips tabaci
≥ 80%: all other assays above

Nc1cc(C(=O)Nc2c(Br)cc(C(F)(C(F)(F)F)C(F)(F)C(F)(F)F)cc2Br)ccc1-n1cncn1 (stereo not shown) [B4, 3-amino-N-[2,6-dibromo-4-(1,2,2,3,3,3-hexafluoro-1-trifluoromethylpropyl)-phenyl]-4-(1,2,4-triazol-1-yl)benzamide]
≥ 80%: Plutella xylostella | Heliothis virescens | Spodoptera littoralis | Tetranychus urticae

Cc1cc(C(F)(C(F)(F)F)C(F)(F)F)cc(C)c1NC(=O)c1ccc(-n2cncn2)c(NC(=O)c2ccc(F)cc2)c1 [D1, 3-(4-Fluorobenzoylamino)-N-[2,6-dimethyl-4-(1,2,2,2-tetrafluoro-1-trifluoromethyl-ethyl)phenyl]-4-(1,2,4-triazol-1-yl)benzamide]
≥ 80%: Plutella xylostella | Heliothis virescens | Diabrotica balteata | Spodoptera littoralis

CCc1cc(C(F)(C(F)(F)F)C(F)(F)F)cc(CC)c1NC(=O)c1ccc(-n2cncn2)c(NC(=O)c2ccc(F)cc2)c1 [D2, 3-(4-fluorobenzoylamino)-N-[2,6-diethyl-4-(1,2,2,2-tetrafluoro-1-trifluoromethylethyl)phenyl]-4-(1,2,4-triazol-1-yl)benzamide]
not listed: Tetranychus urticae
≥ 80%: all other assays above

CCc1cc(C(F)(C(F)(F)F)C(F)(F)C(F)(F)F)cc(C)c1NC(=O)c1ccc(-n2cncn2)c(NC(=O)c2cccc([N+](=O)[O-])c2C)c1 (stereo not shown) [D3, 3-(2-Methyl-3-nitrobenzoylamino)-N-[2-ethyl-4-(1,2,2,3,3,3-hexafluoro-1-trifluoromethylpropyl)-6-methylphenyl]-4-(1,2,4-triazol-1-yl)benzamide]
≥ 80%: Plutella xylostella | Heliothis virescens | Spodoptera littoralis | Tetranychus urticae

CCc1cc(C(F)(C(F)(F)F)C(F)(F)C(F)(F)F)cc(C)c1NC(=O)c1ccc(-n2cncn2)c(NC(=O)c2ccc(C#N)cc2)c1 (stereo not shown) [D5, 3-(4-Cyanobenzoylamino)-N-[2-ethyl-4-(1,2,2,3,3,3-hexafluoro-1-trifluoromethyl-propyl)-6-methylphenyl]-4-(1,2,4-triazol-1-yl)benzamide]
≥ 80%: Plutella xylostella | Heliothis virescens | Spodoptera littoralis

O=C(Nc1cc(C(=O)Nc2c(Br)cc(C(F)(C(F)(F)F)C(F)(F)C(F)(F)F)cc2Br)ccc1-n1cncn1)c1ccc(F)cc1 (stereo not shown) [D7, 3-(4-Fluorobenzoylamino)-N-[2,6-dibromo-4-(1,2,2,3,3,3-hexafluoro-1-trifluoromethylpropyl)phenyl]-4-(1,2,4-triazol-1-yl)benzamide]
not listed: Tetranychus urticae
≥ 80%: all other assays above

N#Cc1ccc(C(=O)Nc2cc(C(=O)Nc3c(Br)cc(C(F)(C(F)(F)F)C(F)(F)C(F)(F)F)cc3Br)ccc2-n2cncn2)cc1 (stereo not shown) [D8, 3-(4-cyanobenzoylamino)-N-[2,6-dibromo-4-(1,2,2,3,3,3-hexafluoro-1-trifluoromethylpropyl)phenyl]-4-(1,2,4-triazol-1-yl)benzamide]
not listed: Tetranychus urticae
≥ 80%: all other assays above
